The test system of assay [1] is Bovine aorta endothelial cells. The assay is described as follows: Capillary tube formation on coated low attachment wells. In kind it is cell-based. The conditions noted are these: 5×10^3 cells per well; DMEM containing 10% FBS; 4 days; phase contrast microscopy. The protocol:
Low attachment 96 well plates were coated with saline, silyl-heparin complex, silyl-heparin-fibrinogen complex or silyl-heparin-bFGF complex. Bovine aorta endothelial cells (5×10^3 cells) were seeded into each well in DMEM containing 10% FBS. The cells were allowed to grow for 4 days and the cultures examined by phase contrast microscopy.

The test system of assay [2] is C3H10T1/2 cells. Nature of the assay: Attachment of C3H10T1/2 cells to silyl-heparin coated wells complexed with adhesive molecules, crystal violet. To be noted: after two hours; hydrogel-polystyrene 96-well plates coated with silyl-heparin complexes and the listed adhesive molecule; proteins 100 μg/ml, serum undiluted. The assay is classed as cell-based, murine. Also on record: unit not given here. The protocol: Attachment of C3H10T1/2 cells after two hours to wells of 96-well, hydrogel-polystyrene plates coated with silyl-heparin complexes and the listed adhesive molecule was detected by staining with crystal violet. All proteins were used at a concentration of 100 μg/ml in buffered saline. Serum was used without dilution. Statistical significance was assessed relative to the values from buffered saline using Student's t-test, with * indicating p<0.05, ** indicating p<0.01 and *** indicating p<0.001.

For assay [3], the target named is T1, bFGF (Homo sapiens, UniProt P09038).
T1 construct: purchased Sigma Chemical Co
T1 sequence (P09038 143-288, species assumed): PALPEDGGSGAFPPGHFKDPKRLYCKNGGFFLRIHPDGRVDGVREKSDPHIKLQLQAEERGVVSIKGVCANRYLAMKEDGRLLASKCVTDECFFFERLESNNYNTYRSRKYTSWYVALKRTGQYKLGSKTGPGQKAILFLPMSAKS
The assay is described as follows: Effect of adhesive molecules complexed to silyl-heparin on subsequent bFGF binding. To be noted: adhesive molecule complexed to silyl-heparin at 100 μg/mL before bFGF. The method, then:
Wells of 96 well polystyrene microtiter plates, with a well surface area of 0.32 cm^2, were coated with 30 μl of silyl heparin for 15 minutes at 37° C. After rinsing and air-drying, bFGF (Sigma Chemical Co.) in PBS/BSA was added in 150 μL aliquots in doubling dilutions. The plate was incubated at 37° C. for 1 hour and rinsed 5 times in PBS. An aliquot 150 μl of PBS/BSA containing 1:500 rabbit anti-FGF antibodies were added, incubated for 1 hour and rinsed. In some cases an irrelevant rabbit antibody was used at a similar concentration (rabbit anti-TGF-receptor II, Santa Cruz Biotechnology). An aliquot of PBS/BSA containing 1:500 HRPO-conjugated donkey anti-rabbit IgG added, and after incubation and rinsing ABTS-chromogen added. All antibody solutions were filtered through 0.2 micron filters prior to use. The absorbance was monitored at 405 nm. […] When anti-TGF-II (irrelevant antibody directed against the transforming growth factor receptor) was used instead of anti-FGF and at the same anti-dilutions, no bFGF was detected. When TGF-β, at a concentration of 40 ng was used as the growth factor molecule, no activity was detected with anti-bFGF antibodies.
Murine type IV collagen, human fibrinogen and bovine fibronectin isolated from plasma were bound to silyl-heparin complexes bound to wells of polystyrene microtiter plates, at a concentration of 100 μg/mL in PBS/BSA. […]

Assay [4] deals with C3H10T1/2 (murine fibroblasts). The assay is described as follows: Cell attachment, spreading and growth on coated low-attachment polystyrene wells. The assay is classed as cell-based. From the text:
(§1) Several cell types were used, including GS-9L cells (rat gliosarcoma), C3H10T1/2 (murine fibroblasts), Jurkat (human T cell), bovine aorta endothelial (BAE) cells and rat lymphocytes. GS-9L and C3H10T1/2 cells were maintained in log phase growth and detached from cultureware using Versene and collected by centrifugation. Jurkat cells grew as single cell suspensions and were collected by centrifugation. Rat lymphocytes were collected from heparinized blood by density gradient isolation over Ficoll-Hypaque® media. The collected cells were rinsed once by low speed centrifugation and suspended in either serum-free Dulbecco's Modified Eagles Medium (DMEM) containing pyruvate or RPMI 1640 containing 10% fetal bovine serum (FBS) supplemented with pyruvate. Aliquots of 10^4 cells in 100 μL were used in subsequent adhesion studies.
(§2) The cells were examined after plating using an inverted, phase-contrast microscope. At selected time points up to 4 days after initial seeding, the cells were rinsed three times in saline and fixed in buffered 10% formalin or 35% ethanol. In some cases, the cells were stained in situ with a 0.01 % aqueous solution of crystal violet. The amount of attachment was scored visually or quantitated. To establish the relative number of cells bound, crystal violet stained cells were dissolved in a solution of 70% ethanol containing 0.1% sodium dodecyl sulfate and 0.38 M Tris and the absorbance monitored at 610 nm, using the methods of Scragg and Ferreira (Anal Biochem 198:80-5, 1991) and Grando et al. (Skin Pharmacol 6:135-47, 1993).
(§3) The cells of Example 7 were added to untreated polystyrene wells, wells coated with silyl-heparin as in Example 4, with silyl-heparin-fibronectin as in Example 5, and with only fibronectin by incubation as described in Example 5. […] Cells were seeded at a concentration of 10^4 cells/well in serum-containing medium.
The cells grew to confluency by 4 days. […] No effort was made to grow the cells in a defined- or serum-low medium known to support growth. […]

For assay [5] the following is noted: affinity binding of fibronectin to heparin; cited from earlier work.
The test system of assay [6] is C3H10T1/2 cells. The assay is described as follows: C3H10T1/2 cell attachment to a variety of coated substrates. The assay is classed as cell-based, murine. The protocol:
as §2
The general applicability of silyl-heparin-fibronectin complex was evaluated by applying this coating using the methods of Examples 4 and 5 to a variety of surfaces, including polystyrene, polylactide:polyglycolide, polycaprolactone, polyurethane and stainless steel. […] They did, however, bind moderately well to polylactide:polyglycolide and to polycaprolactone, and very well to stainless steel.

Assay [7] has as its system C3H10T1/2 cells. The assay is described as follows: Cross-titration of fibronectin and silyl-heparin needed to support cell attachment. The assay is classed as cell-based, murine. To be noted: fibronectin titrated from 4 μg/well on silyl-heparin applied at 30 μg/well; 24 hours; crystal violet, 610 nm. The protocol: The optimal amount of fibronectin and silyl-heparin to support attachment of C3H10T1/2 cells was determined by cross-titration, as shown on FIG. 1. […] The fall-off for the silyl-heparin was more gradual. The curve of the relative amount of silyl-heparin on the substrate following serial dilution generally followed the cell attachment curve.
In FIG. 1, fibronectin (Δ—Δ) or silyl-heparin (•—•) were titrated to determine the quantity needed to support attachment of C3H10T1/2 cells. All dilutions were performed in quadruplicate in wells of 96-well plates of low-attachment polystyrene. For titration of fibronectin, silyl-heparin was applied at 30 μg/well in 70% ethanol as in Example 4. After rinsing, fibronectin was applied in doubling dilutions of phosphate buffered saline starting from 4 μg/well. For titration of silyl-heparin, silyl-heparin was applied in doubling dilutions in 70% ethanol starting from silyl-heparin concentrations of 30 μg/well. Fibronectin was then applied in saline at 4 μg/well. Cells were at a concentration of 10^4 cells/well in growth medium. For both experiments, the cells were allowed 24 hours to attach and then were rinsed and fixed in buffered formalin. The cells were stained for 5 minutes with 0.01% aqueous crystal violet and the absorbance at 610 nm determined.

Assay [8] relates to GS-9L cells (rat gliosarcoma). Nature of the assay: Cell attachment, spreading and growth on coated low-attachment polystyrene wells. To be noted: 10^4 cells/well, serum-containing medium. In kind it is cell-based.
Source text: as §1, §2, §3
The cells grew to confluency by 4 days. […] No effort was made to grow the cells in a defined- or serum-low medium known to support growth.

Marks after values point to notes of the source that are not given here.

Turning to “bFGF: basic fibroblast growth factor (Sigma Chemical Co.)”, the capillary tube formation result in assay [1] is “Tubes did not form”.

As to fibrinogen, the “attachment of C3H10T1/2 cells by crystal violet staining, Average ± S.E.” value (“attachment of C3H10T1/2 cells … Average ± S.E.” below) in assay [2] is 1.63 ± 0.17**. Further, the capillary tube formation entry in assay [1] was “Tubes did not form”. The “effect on binding of bFGF to the silyl-heparin-adhesive molecule complex” value in assay [3] is on record as “less significant decrease in binding”.

Regarding “fibronectin: bovine plasma fibronectin, adhesive molecule”, the “CELL ATTACHMENT” value in assay [4] (C3H10T1/2, coated low-attachment polystyrene wells, 10^4 cells/well, serum-containing medium) was “isolated C3H10T1/2 cells and isolated GS-9L cells were found attached”; in assay [8], “isolated C3H10T1/2 cells and isolated GS-9L cells were found attached”. Besides, in assay [2], the “attachment of C3H10T1/2 cells … Average ± S.E.” value was 1.00 ± 0.10**. In addition, in assay [5], the affinity constant result was “approximately 10^8 M/L”. For the same substance, the “C3H10T1/2 CELL ATTACHMENT” value is reported as “improve the attachment of cells” in assay [6] (surface: Polyactide:polyglycolide), “did not significantly support cell attachment” in assay [6] (surface: Polystyrene) and “improve the attachment of cells” in assay [6] (surface: Polyurethane). Moreover, the “EC50 to support attachment of C3H10T1/2 cells” value in assay [7] is reported as “approximately 0.5 μg/well”. Besides, the “effect on binding of bFGF to the silyl-heparin-adhesive molecule complex” value in assay [3] is reported as “significantly decreased the binding of bFGF”.

Regarding gelatin, in assay [2], the “attachment of C3H10T1/2 cells … Average ± S.E.” value came out at 0.15 ± 0.05.

Take heparin [reference compound]: the “effect of heparin added to the medium on attachment or growth of cells” value in assay [4] (up to 10 U of heparin, C3H10T1/2 plated onto silyl-heparin-fibronectin coated plates) was “did not inhibit the attachment or growth”. Moreover, in assay [6] (regardless of the substrate), the “effect of coating or treatment on C3H10T1/2 cell attachment” value is “did not inhibit attachment”.

For the substance poly-l-lysine [reference compound], the “attachment of C3H10T1/2 cells … Average ± S.E.” value in assay [2] was 1.18 ± 0.06***.

Take poly-l-ornithine [reference compound]: in assay [2], the “attachment of C3H10T1/2 cells … Average ± S.E.” value is reported as 0.92 ± 0.28*.

Turning to “transferrin: protein used at 100 μg/ml on silyl-heparin coated wells”, the “attachment of C3H10T1/2 cells … Average ± S.E.” value in assay [2] is reported as 0.15 ± 0.03.
